US20110136853A1, “LIGAND WITH A BROAD SPECTRUM OF PHARMACOLOGICAL ACTIVITY, A PHARMACEUTICAL COMPOSITION, A MEDICINAL AGENT AND A METHOD OF TREATMENT” (priority 2008, published 2011)
Marks after values point to notes of the source that are not given here.

How the values were obtained:
adrenergic α1A = biological target: T1, adrenergic α1A (Rattus norvegicus, UniProt P43140); test: radioligand displacement, adrenergic α1A; format: binding; settings: ligand 10 μM, duplicates
T1 construct: MDS Pharma Services (contract laboratory)
Method: (§1) The firm MDS Pharma Services [http://www.mdsps.com] carried out this test in duplicates at ligand concentration 10 μM by the displacement of the corresponding radioactive-labeled ligand. Test results, expressed in percent of ligand replacement (%), represented in Table 2 and in FIG. 1.

adrenergic α1B = biological target: T2, adrenergic α1B (Rattus norvegicus, UniProt P15823); test: radioligand displacement, adrenergic α1B; format: binding; settings: ligand 10 μM, duplicates
T2 construct: MDS Pharma Services (contract laboratory)
Method: as §1

adrenergic α2A = biological target: T3, adrenergic α2A (Homo sapiens, UniProt P08913); test: radioligand displacement, adrenergic α2A; format: binding; settings: human being, ligand 10 μM, duplicates
T3 construct: MDS Pharma Services (contract laboratory)
T3 sequence (P08913 whole entry): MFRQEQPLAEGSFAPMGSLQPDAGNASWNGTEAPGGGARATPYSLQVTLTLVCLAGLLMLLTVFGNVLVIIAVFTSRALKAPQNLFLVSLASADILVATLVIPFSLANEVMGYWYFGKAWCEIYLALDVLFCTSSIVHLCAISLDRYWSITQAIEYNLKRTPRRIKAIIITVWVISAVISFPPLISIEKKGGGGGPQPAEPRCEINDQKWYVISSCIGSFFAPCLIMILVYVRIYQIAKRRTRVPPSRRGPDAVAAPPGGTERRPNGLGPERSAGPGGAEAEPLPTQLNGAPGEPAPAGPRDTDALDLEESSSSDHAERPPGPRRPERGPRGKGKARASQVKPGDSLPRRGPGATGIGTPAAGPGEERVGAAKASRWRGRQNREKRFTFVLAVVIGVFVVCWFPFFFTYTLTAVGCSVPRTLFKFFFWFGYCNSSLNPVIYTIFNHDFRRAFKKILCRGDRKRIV
Method: as §1

adrenergic β2 = biological target: T4, adrenergic β2 (Homo sapiens, UniProt P07550); test: radioligand displacement, adrenergic β2; format: binding; settings: adrenergic β2, human being; ligand 10 μM, duplicates
T4 construct: MDS Pharma Services (contract laboratory)
T4 sequence (P07550 whole entry): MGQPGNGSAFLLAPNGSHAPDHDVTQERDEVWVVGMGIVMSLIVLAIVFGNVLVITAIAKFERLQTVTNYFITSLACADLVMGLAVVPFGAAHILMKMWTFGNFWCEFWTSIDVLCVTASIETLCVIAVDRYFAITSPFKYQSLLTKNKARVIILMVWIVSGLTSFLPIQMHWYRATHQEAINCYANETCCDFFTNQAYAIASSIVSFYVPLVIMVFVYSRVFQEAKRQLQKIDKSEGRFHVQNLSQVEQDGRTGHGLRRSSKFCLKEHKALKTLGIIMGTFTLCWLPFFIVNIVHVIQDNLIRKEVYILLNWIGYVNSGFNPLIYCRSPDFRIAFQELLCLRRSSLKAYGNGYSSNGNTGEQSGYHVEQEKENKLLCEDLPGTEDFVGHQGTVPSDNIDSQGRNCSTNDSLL
Method: as §1

[1] = tested on: calcium channel of L-type, benzothiazepine; test: radioligand displacement, L-type calcium channel (benzothiazepine); format: binding; settings: rat, ligand 10 μM, duplicates
Method: as §1

dopamine D1 = biological target: T5, dopamine D1 (Homo sapiens, UniProt P21728); test: radioligand displacement, dopamine D1; format: binding; settings: dopamine D1, human being; ligand 10 μM, duplicates
T5 construct: MDS Pharma Services (contract laboratory)
T5 sequence (P21728 whole entry): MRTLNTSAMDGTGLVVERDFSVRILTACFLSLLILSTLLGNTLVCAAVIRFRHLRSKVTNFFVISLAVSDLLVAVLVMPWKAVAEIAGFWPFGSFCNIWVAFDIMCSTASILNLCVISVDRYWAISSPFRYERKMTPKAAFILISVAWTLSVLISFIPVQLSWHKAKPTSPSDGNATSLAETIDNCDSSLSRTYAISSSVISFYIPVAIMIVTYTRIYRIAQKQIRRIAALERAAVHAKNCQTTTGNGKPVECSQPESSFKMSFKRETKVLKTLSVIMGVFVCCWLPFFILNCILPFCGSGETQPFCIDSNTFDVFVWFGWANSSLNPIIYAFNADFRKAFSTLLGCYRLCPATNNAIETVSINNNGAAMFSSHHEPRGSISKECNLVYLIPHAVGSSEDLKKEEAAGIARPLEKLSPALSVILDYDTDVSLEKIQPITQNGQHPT
Method: as §1

dopamine D2L = biological target: T6, dopamine D2L (Homo sapiens, UniProt P14416); test: radioligand displacement, dopamine D2L; format: binding; settings: human being, ligand 10 μM, duplicates
T6 construct: MDS Pharma Services (contract laboratory)
T6 sequence (P14416 whole entry): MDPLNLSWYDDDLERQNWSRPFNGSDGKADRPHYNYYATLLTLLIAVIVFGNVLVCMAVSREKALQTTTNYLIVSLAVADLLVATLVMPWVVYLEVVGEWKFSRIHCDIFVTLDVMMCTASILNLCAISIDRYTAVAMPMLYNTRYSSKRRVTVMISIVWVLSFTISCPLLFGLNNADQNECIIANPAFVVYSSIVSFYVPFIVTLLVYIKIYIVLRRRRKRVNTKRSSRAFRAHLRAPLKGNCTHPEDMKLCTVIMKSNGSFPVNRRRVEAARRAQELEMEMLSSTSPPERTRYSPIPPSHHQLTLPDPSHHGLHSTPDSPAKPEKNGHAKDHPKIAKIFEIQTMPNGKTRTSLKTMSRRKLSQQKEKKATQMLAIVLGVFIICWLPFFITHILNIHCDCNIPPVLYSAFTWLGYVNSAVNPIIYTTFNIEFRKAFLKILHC
Method: as §1

dopamine D2S = biological target: T7, dopamine D2S (Homo sapiens, UniProt P14416); test: radioligand displacement, dopamine D2S; format: binding; settings: human being, ligand 10 μM, duplicates
T7 construct: MDS Pharma Services (contract laboratory)
T7 sequence (P14416 1-414 isoform P14416-2): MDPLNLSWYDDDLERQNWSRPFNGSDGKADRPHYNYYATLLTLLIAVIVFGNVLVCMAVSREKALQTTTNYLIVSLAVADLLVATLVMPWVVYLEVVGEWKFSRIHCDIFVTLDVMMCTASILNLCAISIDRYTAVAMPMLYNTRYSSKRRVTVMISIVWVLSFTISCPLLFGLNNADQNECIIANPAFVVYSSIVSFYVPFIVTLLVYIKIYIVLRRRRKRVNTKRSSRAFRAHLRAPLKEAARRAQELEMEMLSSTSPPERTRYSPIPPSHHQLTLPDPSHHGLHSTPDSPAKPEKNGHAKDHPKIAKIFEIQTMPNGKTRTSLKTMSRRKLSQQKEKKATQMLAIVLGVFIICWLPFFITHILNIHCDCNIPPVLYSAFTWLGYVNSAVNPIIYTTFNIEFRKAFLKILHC
Method: as §1

dopamine D3 = biological target: T8, dopamine D3 (Homo sapiens, UniProt P35462); test: radioligand displacement, dopamine D3; format: binding; settings: dopamine D3, human being; ligand 10 μM, duplicates
T8 construct: MDS Pharma Services (contract laboratory)
T8 sequence (P35462 whole entry): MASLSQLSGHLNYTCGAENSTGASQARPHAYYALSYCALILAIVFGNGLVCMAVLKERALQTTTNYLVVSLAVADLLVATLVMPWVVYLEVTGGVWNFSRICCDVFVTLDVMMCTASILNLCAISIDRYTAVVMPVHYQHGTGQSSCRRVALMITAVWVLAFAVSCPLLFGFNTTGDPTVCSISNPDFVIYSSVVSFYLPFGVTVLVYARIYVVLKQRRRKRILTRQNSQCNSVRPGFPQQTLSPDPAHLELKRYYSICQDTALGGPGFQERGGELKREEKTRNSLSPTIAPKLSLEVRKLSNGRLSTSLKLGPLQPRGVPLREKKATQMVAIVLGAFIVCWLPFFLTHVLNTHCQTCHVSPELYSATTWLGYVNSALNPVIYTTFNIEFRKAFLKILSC
Method: as §1

histamine H1 = biological target: T9, histamine H1 (Homo sapiens, UniProt P35367); test: radioligand displacement, histamine H1; format: binding; settings: histamine H1, human being; ligand 10 μM, duplicates
T9 construct: MDS Pharma Services (contract laboratory)
T9 sequence (P35367 whole entry): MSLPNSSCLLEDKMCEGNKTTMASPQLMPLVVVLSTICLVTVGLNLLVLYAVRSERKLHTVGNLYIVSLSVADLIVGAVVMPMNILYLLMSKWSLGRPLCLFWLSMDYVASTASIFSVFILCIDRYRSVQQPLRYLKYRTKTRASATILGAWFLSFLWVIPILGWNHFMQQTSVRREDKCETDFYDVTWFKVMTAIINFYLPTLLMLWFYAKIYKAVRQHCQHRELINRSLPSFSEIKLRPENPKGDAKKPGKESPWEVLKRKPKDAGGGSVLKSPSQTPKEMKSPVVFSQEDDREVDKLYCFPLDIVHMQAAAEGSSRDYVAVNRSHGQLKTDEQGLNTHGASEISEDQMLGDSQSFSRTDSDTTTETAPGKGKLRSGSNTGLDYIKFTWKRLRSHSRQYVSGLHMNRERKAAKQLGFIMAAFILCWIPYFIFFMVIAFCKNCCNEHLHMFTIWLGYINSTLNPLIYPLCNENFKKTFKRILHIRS
Method: as §1

histamine H2 = biological target: T10, histamine H2 (Homo sapiens, UniProt P25021); test: radioligand displacement, histamine H2; format: binding; settings: histamine H2, human being; ligand 10 μM, duplicates
T10 construct: MDS Pharma Services (contract laboratory)
T10 sequence (P25021 whole entry): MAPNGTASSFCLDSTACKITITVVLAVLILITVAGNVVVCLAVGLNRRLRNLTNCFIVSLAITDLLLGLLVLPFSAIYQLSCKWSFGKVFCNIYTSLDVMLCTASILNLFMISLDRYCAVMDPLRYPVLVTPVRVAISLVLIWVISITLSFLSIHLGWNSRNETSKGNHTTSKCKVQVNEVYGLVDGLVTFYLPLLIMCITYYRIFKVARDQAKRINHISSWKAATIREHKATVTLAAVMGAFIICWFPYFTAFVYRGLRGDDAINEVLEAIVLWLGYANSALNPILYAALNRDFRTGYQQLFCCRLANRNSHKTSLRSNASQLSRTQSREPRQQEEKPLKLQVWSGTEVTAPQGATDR
Method: as §1

serotonin 5-HT1B = biological target: T11, serotonin 5-HT1B (Homo sapiens, UniProt P28222); test: radioligand displacement, serotonin 5-HT1B; format: binding; settings: human being, ligand 10 μM, duplicates
T11 construct: MDS Pharma Services (contract laboratory)
T11 sequence (P28222 whole entry): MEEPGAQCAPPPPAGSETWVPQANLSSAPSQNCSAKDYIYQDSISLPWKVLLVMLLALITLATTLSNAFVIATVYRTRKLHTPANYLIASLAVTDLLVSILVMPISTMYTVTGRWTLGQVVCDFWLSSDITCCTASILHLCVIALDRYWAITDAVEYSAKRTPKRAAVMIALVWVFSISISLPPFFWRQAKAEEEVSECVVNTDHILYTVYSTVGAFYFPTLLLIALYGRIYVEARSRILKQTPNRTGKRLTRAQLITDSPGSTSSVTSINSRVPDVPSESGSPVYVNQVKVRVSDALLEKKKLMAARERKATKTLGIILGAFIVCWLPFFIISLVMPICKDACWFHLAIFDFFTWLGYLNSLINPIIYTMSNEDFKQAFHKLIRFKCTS
Method: as §1

serotonin 5-HT2B = biological target: T12, serotonin 5-HT2B (Homo sapiens, UniProt P41595); test: radioligand displacement, serotonin 5-HT2B; format: binding; settings: human being, ligand 10 μM, duplicates
T12 construct: MDS Pharma Services (contract laboratory)
Method: as §1

serotonin 5-HT2C = biological target: T13, serotonin 5-HT2C (Homo sapiens, UniProt P28335); test: radioligand displacement, serotonin 5-HT2C; format: binding; settings: human being, ligand 10 μM, duplicates
T13 construct: MDS Pharma Services (contract laboratory)
Method: as §1

serotonin 5-HT6 = biological target: T14, serotonin 5-HT6 (Homo sapiens, UniProt P50406); test: radioligand displacement, serotonin 5-HT6; format: binding; settings: serotonin 5-HT6, human being; ligand 10 μM, duplicates
T14 construct: MDS Pharma Services (contract laboratory)
T14 sequence (P50406 whole entry): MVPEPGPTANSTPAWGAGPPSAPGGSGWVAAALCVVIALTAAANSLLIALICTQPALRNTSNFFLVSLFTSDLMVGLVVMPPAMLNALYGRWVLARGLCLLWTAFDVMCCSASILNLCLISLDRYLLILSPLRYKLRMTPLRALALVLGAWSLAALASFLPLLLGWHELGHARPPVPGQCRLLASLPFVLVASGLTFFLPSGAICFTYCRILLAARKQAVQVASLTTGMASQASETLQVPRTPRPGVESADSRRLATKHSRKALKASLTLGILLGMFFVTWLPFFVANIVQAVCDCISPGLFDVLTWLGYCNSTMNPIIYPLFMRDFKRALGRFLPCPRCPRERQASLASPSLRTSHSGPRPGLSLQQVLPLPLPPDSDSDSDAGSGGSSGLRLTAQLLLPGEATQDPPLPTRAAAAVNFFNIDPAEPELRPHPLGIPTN
Method: as §1

serotonin 5-HT7 = biological target: T15, serotonin 5-HT7 (Homo sapiens, UniProt P34969); test: radioligand displacement, serotonin 5-HT7; format: binding; settings: serotonin 5-HT7, human being; ligand 10 μM, duplicates
T15 construct: MDS Pharma Services (contract laboratory)
T15 sequence (P34969 whole entry): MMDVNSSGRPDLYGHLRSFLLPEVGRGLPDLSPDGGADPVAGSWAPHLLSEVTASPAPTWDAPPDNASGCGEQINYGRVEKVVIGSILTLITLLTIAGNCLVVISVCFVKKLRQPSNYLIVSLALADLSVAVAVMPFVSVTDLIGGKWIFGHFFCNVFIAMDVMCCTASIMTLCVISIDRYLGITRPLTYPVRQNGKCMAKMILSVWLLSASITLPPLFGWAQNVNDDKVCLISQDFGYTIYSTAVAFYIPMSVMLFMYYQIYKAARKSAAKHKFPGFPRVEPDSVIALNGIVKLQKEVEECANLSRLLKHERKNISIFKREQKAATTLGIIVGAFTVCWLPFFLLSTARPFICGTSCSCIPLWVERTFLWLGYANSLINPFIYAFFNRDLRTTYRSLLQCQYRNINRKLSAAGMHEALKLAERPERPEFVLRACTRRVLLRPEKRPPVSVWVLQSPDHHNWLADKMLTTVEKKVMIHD
Method: as §1

sigma σ1 = biological target: T16, sigma σ1 (Homo sapiens, UniProt Q99720); test: radioligand displacement, sigma σ1; format: binding; settings: sigma σ1, human being; ligand 10 μM, duplicates
T16 construct: MDS Pharma Services (contract laboratory)
Method: as §1

sigma σ2 = biological target: T17, sigma σ2 (Rattus norvegicus, UniProt Q5U3Y7); test: radioligand displacement, sigma σ2; format: binding; settings: ligand 10 μM, duplicates
T17 construct: MDS Pharma Services (contract laboratory)
T17 sequence (Q5U3Y7 whole entry): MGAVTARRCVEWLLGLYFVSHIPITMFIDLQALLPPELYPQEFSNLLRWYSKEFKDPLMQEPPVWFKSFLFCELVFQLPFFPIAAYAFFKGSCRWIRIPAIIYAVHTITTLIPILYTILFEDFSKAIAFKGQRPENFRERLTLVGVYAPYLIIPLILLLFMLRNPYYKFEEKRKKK
Method: as §1

sodium channel, site 2 = test: radioligand displacement, sodium channel site 2; format: binding; settings: site 2, rat, ligand 10 μM, duplicates
Method: as §1

[2] = biological target: T18, dopamine transporter (DAT) (Homo sapiens, UniProt Q01959); test: radioligand displacement, dopamine transporter; format: binding; settings: human being, ligand 10 μM, duplicates
T18 construct: MDS Pharma Services (contract laboratory)
Method: as §1

[3] = biological target: T19, norepinephrine transporter (NET) (Homo sapiens, UniProt P23975); test: radioligand displacement, norepinephrine transporter; format: binding; settings: human being, ligand 10 μM, duplicates
T19 construct: MDS Pharma Services (contract laboratory)
Method: as §1

male mice of BALB/c line = test: Mice Behavior in the Elevated Plus Maze; format: in vivo; settings: 5 minutes, FIG. 8-10
Method: The length of maze arms makes 30 cm, the width 5 cm, height of walls 15 cm. Two opposite arms are closed from sides and end walls with prasparent walls, the two others are lighted and opened. A mouse was placed in the maze center and during 5 minutes the number of opened and closed arm entries and the time spent by the animals in opened and closed arms were registered. On this evidence indexes of opened arms preference were calculated as a ratio of the number of opened arm entries and also duration of their stay in the opened arms to the total number of entries into all of arms and duration of stay in them. Being in normal state animals avoid opened arms (index of preference makes 0.2-0.3). Compounds with anxiolytic activity (tranquilizing activity) run this value up to 0.5-0.6 and more, and also decrease the number of defecations without changing overall physical activity (general number of arm entries).

% of radioactive-labeled ligand replacement (adrenergic α1A): 70%
% of radioactive-labeled ligand replacement (adrenergic α1B): 70%
% of radioactive-labeled ligand replacement (adrenergic α2A): 100%
% of radioactive-labeled ligand replacement (adrenergic β2): 76%
% of radioactive-labeled ligand replacement [1]: 65%
% of radioactive-labeled ligand replacement (dopamine D1): 62%
% of radioactive-labeled ligand replacement (dopamine D2L): 51%
% of radioactive-labeled ligand replacement (dopamine D2S): 60%
% of radioactive-labeled ligand replacement (dopamine D3): 80%
% of radioactive-labeled ligand replacement (histamine H1): 97%
% of radioactive-labeled ligand replacement (histamine H2): 97%
% of radioactive-labeled ligand replacement (serotonin 5-HT1B): 64* %
% of radioactive-labeled ligand replacement (serotonin 5-HT2B): 52%
% of radioactive-labeled ligand replacement (serotonin 5-HT2C): 79%
% of radioactive-labeled ligand replacement (serotonin 5-HT6): 79%
% of radioactive-labeled ligand replacement (serotonin 5-HT7): 76%
% of radioactive-labeled ligand replacement (sigma σ1): 75%
% of radioactive-labeled ligand replacement (sigma σ2): 52%
% of radioactive-labeled ligand replacement (sodium channel, site 2): 93%
% of radioactive-labeled ligand replacement [2]: 99%
% of radioactive-labeled ligand replacement [3]: 67%
Structure (SMILES): CN1CCc2c(c3ccccc3n2Cc2ccccc2)C1 [formula 1, 3-methyl-9-benzyl-1,2,3,4-tetrahydrocarboline naphthalene-1,5-disulfonate]
anxiolytic (tranquilizing) action (male mice of BALB/c line): anxiolytic (tranquilizing) activity comparable with the activity of Buspirone and Lorazepam
